Measurements: patent US20250170140A1, “PHARMACEUTICAL COMPOSITION FOR PREVENTING OR TREATING CANCER COMPRISING CARNITINE ACYLCARNITINE CARRIER INHIBITOR AND PEROXISOMAL BETA OXIDATION INHIBITOR” (priority 2021, published 2025)
Read-outs that look alike come from different tables or passages of the source.

How the values were obtained:
Format in all cases: cell-based
A549 cells = assay: SRB assay, lung cancer cells A549
Description: (§1) As a comparison, omeprazole (KN510) and trimetazidine (KN713), a 3-ketoacyl CoA thiolase inhibitor, were co-treated. […] After cell inoculation, 96-well cell culture plates were incubated for 24 hours before the addition of experimental drugs. […] The cells were then incubated in a CO2 incubator for 48 hours, after which the assay was terminated by the addition of cold TCA. Cells were fixed in situ by gently adding 50 μl of cold 50% (w/v) TCA (final concentration: 10% TCA) and incubated at 4° C. for 60 min. The supernatant was discarded, and the plate was washed five times with distilled water and air dried. Sulforhodamine B (SRB) solution (100 μl) of 0.4% (w/v) in 1% acetic acid was added to each well, and the plate was left at room temperature for 10 min. After staining, unbound dye was removed by washing five times with 1% acetic acid, and the plate was air-dried. The bound dye was then solubilized with 10 mM trizma base, and the absorbance was recorded at 515 nm using an automated plate reader. […] The predicted synergistic activity of a combination of the present invention can be calculated using the Colby Equation in Equation 1 (S.R. Colby, Weeds, 1967, pp. 15, 20-22): In the present invention, the actual measure of anti-cancer activity of the combination treatment was the inhibition rate of cancer cell growth (%), and the predicted value (E) of the combination treatment was measured by substituting it into the above Colby Equation.

ACHN cells = assay: SRB assay, renal cell carcinoma cell line ACHN
Description: as §1

AGS cells = assay: SRB assay, stomach cancer cell line AGS
Description: as §1

DU-145 cells = assay: SRB assay, prostate cancer cells DU-145
Description: as §1

OVCAR-8 cells = assay: SRB assay, ovarian cancer cells OVCAR-8
Description: as §1

MDA-MB-231 cells = assay: SRB assay, breast cancer cell line MDA-MB-231
Description: as §1

Hep-3B cells = assay: SRB assay, liver cancer cell line Hep-3B
Description: as §1

PANC-1 cells = assay: SRB assay, pancreatic cancer cell line PANC-1
Description: as §1

MKN-28 cells = assay: SRB assay, stomach cancer cell line MKN-28
Description: as §1

MIA PaCa-2 = assay: SRB assay, cancer cell growth, pancreatic cancer cell line MIA PaCa-2; settings: for inhibition at 5 µM / inhibition at 10 µM: read-out: Inhibition rate of cancer cell growth (%) (Actual value)
Description: as §1, with “20-22): α and β are the measured anti-cancer activity of each compound alone, and E is the predicted anti-cancer activity of a mixture of α and β as a prediction.” for “20-22):”

SF295 cells = assay: SRB assay, glioblastoma cell line SF295
Description: as §1

SR cells = assay: SRB assay, leukemia cell line SR
Description: as §1

K562 cells = assay: SRB assay, leukemia cell line K562
Description: as §1

[1] = Homo sapiens, KN714 5 μM, read-out: Inhibition rate of cancer cell growth (%) (Actual value)
[2] = Homo sapiens, KN714 10 μM, read-out: Inhibition rate of cancer cell growth (%) (Actual value)

In the case of `CSc1ccc2c(c1)N(CCC1CCCCN1C)c1ccccc1S2` (stereo not drawn) [KN714, 10-[2-(1-methyl-2-piperidyl)ethyl]-2-(methylthio)phenothiazine], the inhibition at 5 µM (A549 cells; [1]) is reported as 2.15%, the inhibition at 10 µM (A549 cells; [2]) is reported as 35.4% and the “Cancer cell growth rate Average (%)” value (A549 cells; KN714 5 μM) is reported as 97.85%. For the same compound, the “Cancer cell growth rate Average (%)” value (A549 cells; KN714 10 μM) was 64.57%, the inhibition at 5 µM (ACHN cells; [1]) was -2.76% and the inhibition at 10 µM (ACHN cells; [2]) was 29.6%. For the same compound, the “Cancer cell growth rate Average (%)” value (ACHN cells; KN714 5 μM) was 102.76%, the “Cancer cell growth rate Average (%)” value (ACHN cells; KN714 10 μM) was 70.39% and the inhibition at 5 µM (AGS cells; [1]) was 32.9%. The inhibition at 10 µM (AGS cells; [2]) was 84.5%, the “Cancer cell growth rate Average (%)” value (AGS cells; KN714 5 μM) was 67.13% and the “Cancer cell growth rate Average (%)” value (AGS cells; KN714 10 μM) was 15.46%. The inhibition at 5 µM (DU-145 cells; [1]) was 24.5%, the inhibition at 10 µM (DU-145 cells; [2]) was 44.7% and the “Cancer cell growth rate Average (%)” value (DU-145 cells; KN714 5 μM) was 75.49%. The “Cancer cell growth rate Average (%)” value (DU-145 cells; KN714 10 μM) was 55.27%, the inhibition at 5 µM (OVCAR-8 cells; [1]) was 6.92% and the inhibition at 10 µM (OVCAR-8 cells; [2]) was 55.1%. For the same compound, the “Cancer cell growth rate Average (%)” value (OVCAR-8 cells; KN714 5 μM) was 93.08%, the “Cancer cell growth rate Average (%)” value (OVCAR-8 cells; KN714 10 μM) was 44.89% and the inhibition at 5 µM (MDA-MB-231 cells; [1]) was 9.36%. For the same compound, the inhibition at 10 µM (MDA-MB-231 cells; [2]) was 29.8%, the “Cancer cell growth rate Average (%)” value (MDA-MB-231 cells; KN714 5 μM) was 90.64% and the “Cancer cell growth rate Average (%)” value (MDA-MB-231 cells; KN714 10 μM) was 70.20%. The inhibition at 5 µM (Hep-3B cells; Homo sapiens, Hep3B, KN714 5 μM, read-out: Inhibition rate of cancer cell growth (%) (Actual value)) was 6.06%, the inhibition at 10 µM (Hep-3B cells; Homo sapiens, Hep3B, KN714 10 μM, read-out: Inhibition rate of cancer cell growth (%) (Actual value)) was 29.9% and the “Cancer cell growth rate Average (%)” value (Hep-3B cells; KN714 5 μM) was 93.94%. For the same compound, the “Cancer cell growth rate Average (%)” value (Hep-3B cells; KN714 10 μM) was 70.15%, the inhibition at 5 µM (PANC-1 cells; [1]) was 10.2% and the inhibition at 10 µM (PANC-1 cells; [2]) was 70%. The “Cancer cell growth rate Average (%)” value (PANC-1 cells; KN714 5 μM) was 89.85%, the “Cancer cell growth rate Average (%)” value (PANC-1 cells; KN714 10 μM) was 30.04% and the inhibition at 5 µM (MKN-28 cells; [1]) was 8.19%. For the same compound, the inhibition at 10 µM (MKN-28 cells; [2]) was 64%, the “Cancer cell growth rate Average (%)” value (MKN-28 cells; KN714 5 μM) was 91.81% and the “Cancer cell growth rate Average (%)” value (MKN-28 cells; KN714 10 μM) was 36.04%. It also gave an inhibition at 5 µM (MIA PaCa-2; Homo sapiens, MIA PaCa-2, MIA PaCa-2 (Example 11), KN714 5 μM) of 23.4%, an inhibition at 10 µM (MIA PaCa-2; Homo sapiens, MIA PaCa-2, MIA PaCa-2 (Example 11), KN714 10 μM) of 106% and an inhibition at 5 µM (MIA PaCa-2; Homo sapiens, MIA PaCa-2, MIA PaCa-2, Example 1-3, Table 4, KN714 5 μM) of 31.4%. For the same compound, the inhibition at 10 µM (MIA PaCa-2; Homo sapiens, MIA PaCa-2, MIA PaCa-2, Example 1-3, Table 4, KN714 10 μM) was 105%, the GI50 (MIA PaCa-2; Homo sapiens, MIA PaCa-2, 48 hours, read-out: GI50 (Half maximal growth inhibition concentration)) was 1.9 µM and the “Cancer cell growth rate Average (%)” value (MIA PaCa-2; MIA PaCa-2 (Example 11), KN714 5 μM) was 76.62%. The “Cancer cell growth rate Average (%)” value (MIA PaCa-2; MIA PaCa-2 (Example 11), KN714 10 μM) was −5.93%, the “Cancer cell growth rate Average (%)” value (MIA PaCa-2; MIA PaCa-2, Conc. 10^−5M, Table 1) was −10.55% and the “Cancer cell growth rate Average (%)” value (MIA PaCa-2; MIA PaCa-2, Conc. 10^−6M, Table 1) was 94.73%. The “Cancer cell growth rate Average (%)” value (MIA PaCa-2; MIA PaCa-2, Conc. 10^−7M, Table 1) was 95.13%, the “Cancer cell growth rate Average (%)” value (MIA PaCa-2; MIA PaCa-2, Conc. 10^−8M, Table 1) was 90.56% and the “Cancer cell growth rate Average (%)” value (MIA PaCa-2; MIA PaCa-2, Conc. 10^−9M, Table 1) was 97.03%. The “Cancer cell growth rate Average (%)” value (MIA PaCa-2; MIA PaCa-2, Conc. 10^−10M, Table 1) was 97.11%, the “Cancer cell growth rate Average (%)” value (MIA PaCa-2; MIA PaCa-2, Example 1-2, Table 2, KN714 5 μM) was 68.62% and the “Cancer cell growth rate Average (%)” value (MIA PaCa-2; MIA PaCa-2, Example 1-2, Table 2, KN714 10 μM) was −5.25%. The inhibition at 5 µM (SF295 cells; Homo sapiens, SF-295, KN714 5 μM, read-out: Inhibition rate of cancer cell growth (%) (Actual value)) was 16.5%, the inhibition at 10 µM (SF295 cells; Homo sapiens, SF-295, KN714 10 μM, read-out: Inhibition rate of cancer cell growth (%) (Actual value)) was 75.5% and the “Cancer cell growth rate Average (%)” value (SF295 cells; KN714 5 μM) was 83.54%. For the same compound, the “Cancer cell growth rate Average (%)” value (SF295 cells; KN714 10 μM) was 24.47%, the inhibition at 5 µM (SR cells; [1]) was 37.2% and the inhibition at 10 µM (SR cells; [2]) was 111%. For the same compound, the “Cancer cell growth rate Average (%)” value (SR cells; KN714 5 μM) was 62.75%, the “Cancer cell growth rate Average (%)” value (SR cells; KN714 10 μM) was −11.34% and the inhibition at 5 µM (K562 cells; [1]) was 57.8%. For the same compound, the inhibition at 10 µM (K562 cells; [2]) was 102%, the “Cancer cell growth rate Average (%)” value (K562 cells; KN714 5 μM) was 42.25% and the “Cancer cell growth rate Average (%)” value (K562 cells; KN714 10 μM) was −1.56%.
